In US9883671B2, “Mixture of natural or nature-identical alcohols with improved effectiveness” (L'AIR LIQUIDE, SOCIETE ANONYME POUR L'ETUDE ET …, priority 2012, dated 2018):

System: inoculation solution of test organisms: Staphylococcus aureus, Kocuria rhizophila, Enterobacter gergoviae, Escherichia coli, Klebsiella pneumoniae, Pseudomonas …
Assay: Determination of the preserving effect of chemical preservatives in cosmetic formulations (Koko test), Carbopol gel
Type: cell-based, bacteria, yeast and moulds (mixed inoculum, ATCC strains)
Conditions: 0.1% by weight; inferred from Experiment 9 compared with Experiment 2
Method: Method A—Determination of the Preserving Effect of Chemical Preservatives in Cosmetic Formulations (Koko Test) The test described below is carried out to determine the preserving effect of chemical preservatives in cosmetic formulations. Using the described method, the aim is to test the effectiveness of chemical preservatives with regard to the pack preservation for cosmetic formulations. For this purpose, the preservatives to be tested are added in various concentrations to the unpreserved samples in different experimental batches. A continuous microbial burden is achieved by periodically inoculating the experimental batches. In parallel to the inoculation, streaks of the individual batches are in each case made immediately beforehand. Assessment is made by reference to the microbial growth of the streaks. […] In each case, 25 g of the cosmetic to be tested are weighed into wide-necked bottles with screw closure (LDPE). […] The preserving effect of the individual product concentrations is assessed in a semi-quantitative method by means of the growth of the individual streaks. […] The sample is well-preserved according to criterion A if it exists under the laboratory conditions given above for a period of six weeks without microbial attack of the sample batches, i.e. no microbial growth can be detected even after the sixth inoculation. […]

SMILES: CCCCCCCCCCCO [Experiment 1-undecanol, 1-undecanol]
- Preserving effect of the substance by itself, inferred: no effect
